Reference: patent US7157083B2, “Compositions and methods for treating retroviral infections” (priority 1998, dated 2007)
Read-outs that look alike come from different tables or passages of the source.

Assays:
IIIB (HIV IIIB virus) = assay: Study 4 sensitization, Turpin and standard macrophages: RT activity after IIIB challenge; format: cell-based
Protocol: Percent virus control (% VC) in the following tables is the mean RT activity (cpm) as a percentage of a virus control. Percent cell control (% CC) is the mean XTT absorbance as a percentage of a cell control.
Reverse transcriptase (RT) activity was measured in cell-free supernatants. Tritiated thymidine triphosphate (NEN) (TTP) was resuspended in distilled H2O at […]. Poly rA and oligo dT were prepared as a stock solution which was kept at −20° C. The RT reaction buffer was prepared fresh on a daily basis and consists of 125 μL 1.0 M EGTA, 125 μL d H2O, 110 μL 10% SDS, 50 μL 1.0 M Tris (pH 7.4), 50 μL 1.0 M DTT, and 40μ1.0 M MgCl2. These three solutions were mixed together in a ratio of 2 parts TTP, 1 part poly rA:oligo dT, and 1 part reaction buffer. Ten microliters of this reaction mixture was placed in a round bottom microtiter plate and 15 μL of virus containing supernatant was added and mixed. The plate was incubated at 37° C. in a water bath with a solid support to prevent submersion of the plate and incubated for 60 minutes. Following reaction, the reaction volume was spotted onto pieces of DE81 paper, washed 5 times for 5 minutes each in a 5% sodium phosphate buffer, 2 times for 1 minute each in distilled water, 2 times for 1 minute each in 70% ethanol, and then dried. Opti-Fluor O was added to each sample and incorporated radioactivity was quantitated utilizing a Wallace 1450 Microbetaplus liquid scintillation counter.
The macrophage plates were then washed with HBSS multiple times. Fresh mixed pha blast PBMCs (5×10e4/well) were placed on the macrophage cells, allowed to incubate for 72 hours and then harvested and reset in a fresh 96 well plate. The PBMCs were then challenged overnight with the respective virus (IIIB or Rojo) at a standard MOI for that virus. The PBMCs were 5× in plate spin washed with DPBS, incubated 24 hours, at which time 5×10e4 fresh pha blast PBMCs/well were added. The culture was incubated an additional 6 days and then assayed for RT activity.
Where viability corrections were conducted, they were performed by dividing the RT CPM value by the toxicity absorbance in order to compensate for well to well variations noted in the cell titer toxicity noted.

HIV-1 [1] = assay: Study 5 overall: resistance of naive PBMCs to HIV-1 challenge (RT activity and P-24 assay); format: cell-based; details: monocytes and macrophages incubated with hyaluronidase treated heat inactivated or Aldrathiol-2 treated virus
Protocol: Control groups were not treated with the enzyme. The virus was then titrated on macrophage/monocyte cultures and incubated at 37° C. for 48 hours at which time the macrophages and monocytes were washed 3×, resuspended and placed in fresh wells. Naïve PBMC's were overlayed on the macrophage/monocyte cultures and incubated at 37° C. for 72 hours. The PBMC's were then separated, washed and placed in fresh wells with fresh medium and rested for 48 hours. After a 48 hour rest period, the PBMC's were challenged with HIV-1 with and without PHA, I1-2, or both. […] These various assays are presented below in Table 10 .

HIV-1 [2] = details: Assay #7
Protocol: Reverse transcriptase (RT) activity was measured in cell-free supernatants. Tritiated thymidine triphosphate (NEN) (TTP) was resuspended in distilled H2O at 5 Cl/mL. Poly rA and oligo dT were prepared as a stock solution which was kept at −20° C. The RT reaction buffer was prepared fresh on a daily basis and consists of 125 μL 1.0 M EGTA, 125 μL d H2O, 110 μL 10% SDS, 50 μL 1.0 M Tris (pH 7.4), 50 μL 1.0 M DTT, and 40μ1.0 M MgCl2. These three solutions were mixed together in a ratio of 2 parts TTP, 1 part poly rA:oligo dT, and 1 part reaction buffer. Ten microliters of this reaction mixture was placed in a round bottom microtiter plate and 15 μL of virus containing supernatant was added and mixed. The plate was incubated at 37° C. in a water bath with a solid support to prevent submersion of the plate and incubated for 60 minutes. Following reaction, the reaction volume was spotted onto pieces of DE81 paper, washed 5 times for 5 minutes each in a 5% sodium phosphate buffer, 2 times for 1 minute each in distilled water, 2 times for 1 minute each in 70% ethanol, and then dried. Opti-Fluor O was added to each sample and incorporated radioactivity was quantitated utilizing a Wallace 1450 Microbetaplus liquid scintillation counter.

Hyaluronidase
RT activity % VC (IIIB (HIV IIIB virus); 0.097656 μg/mL, GP120IIIB Sensitized, Standard): 176.4%
RT activity % VC (IIIB (HIV IIIB virus); 0.097656 μg/mL, GP120IIIB Sensitized, Turpin): 89.0%
RT activity % VC (IIIB (HIV IIIB virus); 0.097656 μg/mL, IIIB Sensitized, Standard): 145.2%
RT activity % VC (IIIB (HIV IIIB virus); 0.097656 μg/mL, IIIB Sensitized, Turpin): 98.7%
RT activity % VC (IIIB (HIV IIIB virus); 0.195313 μg/mL, GP120IIIB Sensitized, Standard): 102.8%
RT activity % VC (IIIB (HIV IIIB virus); 0.195313 μg/mL, GP120IIIB Sensitized, Turpin): 108.1%
RT activity % VC (IIIB (HIV IIIB virus); 0.195313 μg/mL, IIIB Sensitized, Standard): 178.1%
RT activity % VC (IIIB (HIV IIIB virus); 0.195313 μg/mL, IIIB Sensitized, Turpin): 95.8%
RT activity % VC (IIIB (HIV IIIB virus); 0.390625 μg/mL, GP120IIIB Sensitized, Standard): 87.7%
RT activity % VC (IIIB (HIV IIIB virus); 0.390625 μg/mL, GP120IIIB Sensitized, Turpin): 83.5%
RT activity % VC (IIIB (HIV IIIB virus); 0.390625 μg/mL, IIIB Sensitized, Standard): 181.3%
RT activity % VC (IIIB (HIV IIIB virus); 0.78125 μg/mL, GP120IIIB Sensitized, Standard): 94.5%
RT activity % VC (IIIB (HIV IIIB virus); 0.78125 μg/mL, GP120IIIB Sensitized, Turpin): 105.6%
RT activity % VC (IIIB (HIV IIIB virus); 0.78125 μg/mL, IIIB Sensitized, Standard): 129.9%
RT activity % VC (IIIB (HIV IIIB virus); 0.78125 μg/mL, IIIB Sensitized, Turpin): 100.0%
RT activity % VC (IIIB (HIV IIIB virus); 1.5625 μg/mL, GP120IIIB Sensitized, Standard): 100.7%
RT activity % VC (IIIB (HIV IIIB virus); 1.5625 μg/mL, GP120IIIB Sensitized, Turpin): 58.0%
RT activity % VC (IIIB (HIV IIIB virus); 1.5625 μg/mL, IIIB Sensitized, Standard): 203.0%
RT activity % VC (IIIB (HIV IIIB virus); 1.5625 μg/mL, IIIB Sensitized, Turpin): 68.3%
RT activity % VC (IIIB (HIV IIIB virus); 3.125 μg/mL, GP120IIIB Sensitized, Standard): 82.3%
RT activity % VC (IIIB (HIV IIIB virus); 3.125 μg/mL, GP120IIIB Sensitized, Turpin): 71.2%
RT activity % VC (IIIB (HIV IIIB virus); 3.125 μg/mL, IIIB Sensitized, Standard): 120.8%
RT activity % VC (IIIB (HIV IIIB virus); 6.25 μg/mL, GP120IIIB Sensitized, Standard): 106.5%
RT activity % VC (IIIB (HIV IIIB virus); 6.25 μg/mL, GP120IIIB Sensitized, Turpin): 72.2%
RT activity % VC (IIIB (HIV IIIB virus); 6.25 μg/mL, IIIB Sensitized, Standard): 234.4%
RT activity % VC (IIIB (HIV IIIB virus); 6.25 μg/mL, IIIB Sensitized, Turpin): 70.0%
RT activity % VC (IIIB (HIV IIIB virus); 25 μg/mL, GP120IIIB Sensitized, Standard): 70.6%
RT activity % VC (IIIB (HIV IIIB virus); 25 μg/mL, GP120IIIB Sensitized, Turpin): 52.1%
RT activity % VC (IIIB (HIV IIIB virus); 25 μg/mL, IIIB Sensitized, Standard): 99.8%
RT activity % VC (IIIB (HIV IIIB virus); 25 μg/mL, IIIB Sensitized, Turpin): 23.6%
RT activity % VC (IIIB (HIV IIIB virus); viability corrected, 0.097656 μg/mL, GP120IIIB Sensitized, Standard): 105.6%
RT activity % VC (IIIB (HIV IIIB virus); viability corrected, 0.097656 μg/mL, GP120IIIB Sensitized, Turpin): 116.0%
RT activity % VC (IIIB (HIV IIIB virus); viability corrected, 0.097656 μg/mL, IIIB Sensitized, Standard): 103.7%
RT activity % VC (IIIB (HIV IIIB virus); viability corrected, 0.097656 μg/mL, IIIB Sensitized, Turpin): 95.3%
RT activity % VC (IIIB (HIV IIIB virus); viability corrected, 0.195313 μg/mL, GP120IIIB Sensitized, Standard): 83.8%
RT activity % VC (IIIB (HIV IIIB virus); viability corrected, 0.195313 μg/mL, GP120IIIB Sensitized, Turpin): 111.2%
RT activity % VC (IIIB (HIV IIIB virus); viability corrected, 0.195313 μg/mL, IIIB Sensitized, Standard): 141.1%
RT activity % VC (IIIB (HIV IIIB virus); viability corrected, 0.195313 μg/mL, IIIB Sensitized, Turpin): 110.9%
RT activity % VC (IIIB (HIV IIIB virus); viability corrected, 0.390625 μg/mL, GP120IIIB Sensitized, Standard): 74.2%
RT activity % VC (IIIB (HIV IIIB virus); viability corrected, 0.390625 μg/mL, GP120IIIB Sensitized, Turpin): 122.4%
RT activity % VC (IIIB (HIV IIIB virus); viability corrected, 0.390625 μg/mL, IIIB Sensitized, Standard): 177.8%
RT activity % VC (IIIB (HIV IIIB virus); viability corrected, 0.390625 μg/mL, IIIB Sensitized, Turpin): 98.3%
RT activity % VC (IIIB (HIV IIIB virus); viability corrected, 0.78125 μg/mL, GP120IIIB Sensitized, Standard): 100.5%
RT activity % VC (IIIB (HIV IIIB virus); viability corrected, 0.78125 μg/mL, GP120IIIB Sensitized, Turpin): 115.4%
RT activity % VC (IIIB (HIV IIIB virus); viability corrected, 0.78125 μg/mL, IIIB Sensitized, Standard): 117.6%
RT activity % VC (IIIB (HIV IIIB virus); viability corrected, 0.78125 μg/mL, IIIB Sensitized, Turpin): 95.5%
RT activity % VC (IIIB (HIV IIIB virus); viability corrected, 1.5625 μg/mL, GP120IIIB Sensitized, Standard): 97.2%
RT activity % VC (IIIB (HIV IIIB virus); viability corrected, 1.5625 μg/mL, GP120IIIB Sensitized, Turpin): 74.4%
RT activity % VC (IIIB (HIV IIIB virus); viability corrected, 1.5625 μg/mL, IIIB Sensitized, Standard): 189.1%
RT activity % VC (IIIB (HIV IIIB virus); viability corrected, 1.5625 μg/mL, IIIB Sensitized, Turpin): 79.6%
RT activity % VC (IIIB (HIV IIIB virus); viability corrected, 3.125 μg/mL, GP120IIIB Sensitized, Standard): 76.1%
RT activity % VC (IIIB (HIV IIIB virus); viability corrected, 3.125 μg/mL, GP120IIIB Sensitized, Turpin): 79.0%
RT activity % VC (IIIB (HIV IIIB virus); viability corrected, 3.125 μg/mL, IIIB Sensitized, Standard): 115.2%
RT activity % VC (IIIB (HIV IIIB virus); viability corrected, 3.125 μg/mL, IIIB Sensitized, Turpin): 106.2%
RT activity % VC (IIIB (HIV IIIB virus); viability corrected, 6.25 μg/mL, GP120IIIB Sensitized, Standard): 95.2%
RT activity % VC (IIIB (HIV IIIB virus); viability corrected, 6.25 μg/mL, GP120IIIB Sensitized, Turpin): 96.0%
RT activity % VC (IIIB (HIV IIIB virus); viability corrected, 6.25 μg/mL, IIIB Sensitized, Standard): 181.7%
RT activity % VC (IIIB (HIV IIIB virus); viability corrected, 6.25 μg/mL, IIIB Sensitized, Turpin): 63.4%
RT activity % VC (IIIB (HIV IIIB virus); viability corrected, 25 μg/mL, GP120IIIB Sensitized, Standard): 81.6%
RT activity % VC (IIIB (HIV IIIB virus); viability corrected, 25 μg/mL, GP120IIIB Sensitized, Turpin): 54.1%
RT activity % VC (IIIB (HIV IIIB virus); viability corrected, 25 μg/mL, IIIB Sensitized, Standard): 124.6%
RT activity % VC (IIIB (HIV IIIB virus); viability corrected, 25 μg/mL, IIIB Sensitized, Turpin): 26.6%
resistance of naïve PBMC's to HIV-1 challenge (HIV-1 [1]): up to 100%
% Control (HIV-1 [2]; 5 mg/mL): 111.3%
Mean RT (HIV-1 [2]; 5 mg/mL): 18777.7 cpm
% Control (HIV-1 [2]; 10 mg/mL): 122.2%
Mean RT (HIV-1 [2]; 10 mg/mL): 20614.7 cpm
% Control (HIV-1 [2]; 20 mg/mL): 162.7%
Mean RT (HIV-1 [2]; 20 mg/mL): 27462 cpm
% Control, Sum (HIV-1 [2]; Sum over 20, 10, 5 mg/mL): 396.2%
Mean RT, Sum (HIV-1 [2]; Sum over 20, 10, 5 mg/mL): 66854.4 cpm
